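A five-concentration, 48-hour dose response in 96-well plates underlies each endpoint, interpolated linearly between surrounding concentrations. GI50 = concentration required for 50% inhibition of growth. TGI denotes the concentration required for complete inhibition of growth.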
Legend:
Assay in all cases: DTP human tumour cell line panel, 48 h
[1] = test system: CCRF-CEM leukemia
[2] = test system: IGROV1 ovarian
[3] = test system: U251 CNS
[4] = test system: OVCAR-4 ovarian
[5] = test system: MCF7 breast
[6] = test system: OVCAR-8 ovarian
[7] = test system: 786-0 renal
[8] = test system: A549 NSCLC
[9] = test system: MDA-MB-435
[10] = test system: SK-MEL-2 melanoma
[11] = test system: HCC-2998 colon
[12] = test system: MOLT-4 leukemia
[13] = test system: UACC-257 melanoma
[14] = test system: UACC-62 melanoma
[15] = test system: SNB-19 CNS
[16] = test system: SW-620 colon
[17] = test system: HOP-92 NSCLC
[18] = test system: NCI-H522 lung
[19] = test system: K-562 leukemia
[20] = test system: UO-31 renal
[21] = test system: DU-145 prostate
[22] = test system: CAKI-1 renal
[23] = test system: SK-OV-3 ovarian
[24] = test system: T-47D breast
[25] = test system: RPMI-8226 leukemia
[26] = test system: HCT-116 colon
[27] = test system: PC-3 prostate
[28] = test system: ACHN renal
[29] = test system: SK-MEL-28 melanoma

Cc1ccc(Cl)cc1NC(=O)N/C(N)=N/c1nc2ccccc2s1 gave a GI50 [1] of 37.1 nM, a TGI [1] of 7470 nM and a GI50 [2] of 99.2 nM. For the same molecule, the TGI [2] was 2860 nM, the GI50 [3] was 37 nM and the TGI [3] was 3670 nM. For the same molecule, the GI50 [4] was 1580 nM, the TGI [4] was 16300 nM and the GI50 [5] was 199 nM. It also gave a TGI [5] of 11400 nM, a GI50 [6] of 43.8 nM and a TGI [6] of 2080 nM. It also gave a GI50 [7] of 64.1 nM, a TGI [7] of 4020 nM and a GI50 [8] of 115 nM. The TGI [8] was 4500 nM, the GI50 [9] was 20.3 nM and the TGI [9] was 43.5 nM. The GI50 [10] was 95 nM, the TGI [10] was 941 nM and the GI50 [11] was 67.6 nM. For the same molecule, the TGI [11] was 1110 nM, the GI50 [12] was 60.3 nM and the TGI [12] was 8400 nM. The GI50 [13] was 6470 nM, the TGI [13] was 33200 nM and the GI50 [14] was 46.7 nM. The TGI [14] was 5530 nM, the GI50 [15] was 66.5 nM and the TGI [15] was 15200 nM. The GI50 [16] was 44.5 nM, the TGI [16] was 14400 nM and the GI50 [17] was 1170 nM. For the same molecule, the TGI [17] was 10900 nM, the GI50 [18] was 24.7 nM and the TGI [18] was 88.3 nM. The GI50 [19] was 34.6 nM, the TGI [19] was over 33900 nM and the GI50 [20] was 59.3 nM. For the same molecule, the TGI [20] was 10200 nM, the GI50 [21] was 47.1 nM and the TGI [21] was 2850 nM. For the same molecule, the GI50 [22] was 45.6 nM, the TGI [22] was 6660 nM and the GI50 [23] was 62.4 nM. For the same molecule, the TGI [23] was 4730 nM, the GI50 [24] was 1320 nM and the TGI [24] was 53200 nM. It also gave a GI50 [25] of 42.5 nM, a TGI [25] of 6190 nM and a GI50 [26] of 37.1 nM. It also gave a TGI [26] of 696 nM, a GI50 [27] of 55.1 nM and a TGI [27] of 11300 nM. For the same molecule, the GI50 [28] was 79.4 nM, the TGI [28] was 6370 nM and the GI50 [29] was 608 nM. For the same molecule, the TGI [29] was 19900 nM.
